PMC11868595, “Safety, pharmacokinetics and efficacy of HA121-28 in patients with advanced solid tumors and RET fusion-positive non-small-cell lung cancer: a multicenter, open-label, single-arm phase 1/2 trial” (Signal Transduction and Targeted Therapy, 2025)

Assay: Phase 1 clinical pharmacokinetics in plasma
Type: in vivo, human
Conditions: for AUC0-24, Mean (CV%) / AUC0-t, Mean (CV%) / CLz/F, Mean (CV%) / Cmax, Mean (CV%) / Tmax, median [Min-Max] / Vz/F, Mean (CV%) / t1/2z, Mean (CV%): Single dose; for AUC0-24,ss, Mean (CV%) / Cmax,ss, Mean (CV%) / Tmax,ss, median [Min-Max]: Steady State

Compound: COc1cc2c(Nc3ccc(Br)cc3F)ncnc2cc1OCCCCN(C)C.Cl.Cl [HA121-28, N-(4-bromo-2-fluorophenyl)-7-(4-(dimethylamino)butoxy)-6-methoxy quinazolin-4-amine dihydrochloride]
- AUC0-24, Mean (CV%) (25 mg (N=1)): 237.1 (-) h*ng/mL
- AUC0-t, Mean (CV%) (25 mg (N=1)): 906.8 (-) h*ng/mL
- CLz/F, Mean (CV%) (25 mg (N=1)): 18.5 (-) L/h
- Cmax, Mean (CV%) (25 mg (N=1)): 15.6 (-) ng/mL
- Tmax, median [Min-Max] (25 mg (N=1)): 4 [4,4] h
- Vz/F, Mean (CV%) (25 mg (N=1)): 2971.7 (-) L
- t1/2z, Mean (CV%) (25 mg (N=1)): 111.2 (-) h
- AUC0-24, Mean (CV%) (50 mg (N=1)): 283.0 (-) h*ng/mL
- AUC0-t, Mean (CV%) (50 mg (N=1)): 1645.1 (-) h*ng/mL
- CLz/F, Mean (CV%) (50 mg (N=1)): 19.5 (-) L/h
- Cmax, Mean (CV%) (50 mg (N=1)): 15.6 (-) ng/mL
- Tmax, median [Min-Max] (50 mg (N=1)): 24 [24,24] h
- Vz/F, Mean (CV%) (50 mg (N=1)): 3137.7 (-) L
- t1/2z, Mean (CV%) (50 mg (N=1)): 111.6 (-) h
- AUC0-24, Mean (CV%) (100 mg (N=4)): 725.9 (306.5) h*ng/mL
- AUC0-t, Mean (CV%) (100 mg (N=4)): 3460.0 (1126.6) h*ng/mL
- CLz/F, Mean (CV%) (100 mg (N=4)): 18.8 (4.8) L/h
- Cmax, Mean (CV%) (100 mg (N=4)): 46.4 (27.0) ng/mL
- Tmax, median [Min-Max] (100 mg (N=4)): 6 [4-24] h
- Vz/F, Mean (CV%) (100 mg (N=4)): 2303.3 (37.5) L
- t1/2z, Mean (CV%) (100 mg (N=4)): 89.1 (23.8) h
- AUC0-24, Mean (CV%) (200 mg (N=4)): 1884.6 (514.6) h*ng/mL
- AUC0-t, Mean (CV%) (200 mg (N=4)): 7763.0 (2539.2) h*ng/mL
- CLz/F, Mean (CV%) (200 mg (N=4)): 21.6 (7.0) L/h
- Cmax, Mean (CV%) (200 mg (N=4)): 115.5 (32.7) ng/mL
- Tmax, median [Min-Max] (200 mg (N=4)): 8 [8-10] h
- Vz/F, Mean (CV%) (200 mg (N=4)): 2627.1 (1416.0) L
- t1/2z, Mean (CV%) (200 mg (N=4)): 80.7 (15.3) h
- AUC0-24, Mean (CV%) (300 mg (N=4)): 3037.9 (854.0) h*ng/mL
- AUC0-t, Mean (CV%) (300 mg (N=4)): 11276.6 (2463.8) h*ng/mL
- CLz/F, Mean (CV%) (300 mg (N=4)): 19.1 (3.8) L/h
- Cmax, Mean (CV%) (300 mg (N=4)): 193.0 (70.1) ng/mL
- Tmax, median [Min-Max] (300 mg (N=4)): 8 [2-8] h
- Vz/F, Mean (CV%) (300 mg (N=4)): 2307.1 (724.2) L
- t1/2z, Mean (CV%) (300 mg (N=4)): 83.1 (16.6) h
- AUC0-24, Mean (CV%) (450 mg (N=7)): 6271.3 (2275.9) h*ng/mL
- AUC0-t, Mean (CV%) (450 mg (N=7)): 20218.4 (7301.9) h*ng/mL
- CLz/F, Mean (CV%) (450 mg (N=7)): 16.2 (6.6) L/h
- Cmax, Mean (CV%) (450 mg (N=7)): 374.7 (140.6) ng/mL
- Tmax, median [Min-Max] (450 mg (N=7)): 8 [4-8] h
- Vz/F, Mean (CV%) (450 mg (N=7)): 2009.5 (706.2) L
- t1/2z, Mean (CV%) (450 mg (N=7)): 87.6 (11.7) h
- AUC0-24, Mean (CV%) (600 mg (N=5)): 8403.6 (4593.9) h*ng/mL
- AUC0-t, Mean (CV%) (600 mg (N=5)): 26818.4 (14650.1) h*ng/mL
- CLz/F, Mean (CV%) (600 mg (N=5)): 19.7 (8.1) L/h
- Cmax, Mean (CV%) (600 mg (N=5)): 500.0 (224.3) ng/mL
- Tmax, median [Min-Max] (600 mg (N=5)): 8 [4-8] h
- Vz/F, Mean (CV%) (600 mg (N=5)): 2163.4 (719.0) L
- t1/2z, Mean (CV%) (600 mg (N=5)): 80.8 (19.4) h
- AUC0-24, Mean (CV%) (800 mg (N=3)): 9721.8 (2598.4) h*ng/mL
- AUC0-t, Mean (CV%) (800 mg (N=3)): 33030.6 (10820.6) h*ng/mL
- CLz/F, Mean (CV%) (800 mg (N=3)): 19.9 (9.2) L/h
- Cmax, Mean (CV%) (800 mg (N=3)): 610.0 (200.1) ng/mL
- Tmax, median [Min-Max] (800 mg (N=3)): 8 [4-8] h
- Vz/F, Mean (CV%) (800 mg (N=3)): 2001.6 (613.2) L
- t1/2z, Mean (CV%) (800 mg (N=3)): 74.1 (24.6) h
- AUC0-24,ss, Mean (CV%) (25 mg (N=1)): 1629.1 (-) h*ng/mL
- Cmax,ss, Mean (CV%) (25 mg (N=1)): 77.2 (-) ng/mL
- Tmax,ss, median [Min-Max] (25 mg (N=1)): 2 [2,2] h
- AUC0-24,ss, Mean (CV%) (50 mg (N=1)): 2728.6 (-) h*ng/mL
- Cmax,ss, Mean (CV%) (50 mg (N=1)): 122.0 (-) ng/mL
- Tmax,ss, median [Min-Max] (50 mg (N=1)): 4 [4,4] h
- AUC0-24,ss, Mean (CV%) (100 mg (N=4)): 4785.0 (1808.2) h*ng/mL
- Cmax,ss, Mean (CV%) (100 mg (N=4)): 219.0 (75.2) ng/mL
- Tmax,ss, median [Min-Max] (100 mg (N=4)): 8 [4-8] h
- AUC0-24,ss, Mean (CV%) (200 mg (N=4)): 11332.7 (4944.0) h*ng/mL
- Cmax,ss, Mean (CV%) (200 mg (N=4)): 550.0 (229.2) ng/mL
- Tmax,ss, median [Min-Max] (200 mg (N=4)): 8 [8-8] h
- AUC0-24,ss, Mean (CV%) (300 mg (N=4)): 12969.9 (1048.1) h*ng/mL
- Cmax,ss, Mean (CV%) (300 mg (N=4)): 635.3 (30.1) ng/mL
- Tmax,ss, median [Min-Max] (300 mg (N=4)): 4 [4-4] h
- AUC0-24,ss, Mean (CV%) (450 mg (N=7)): 18460.0 (3291.4) h*ng/mL
- Cmax,ss, Mean (CV%) (450 mg (N=7)): 945.8 (189.0) ng/mL
- Tmax,ss, median [Min-Max] (450 mg (N=7)): 6 [4-8] h
- AUC0-24,ss, Mean (CV%) (600 mg (N=5)): 27965.4 (13872.8) h*ng/mL
- Cmax,ss, Mean (CV%) (600 mg (N=5)): 1453.0 (825.0) ng/mL
- Tmax,ss, median [Min-Max] (600 mg (N=5)): 4 [4-8] h
- AUC0-24,ss, Mean (CV%) (800 mg (N=3)): 23180.1 (3336.5) h*ng/mL
